Source: PubChem BioAssay (NCI)
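Assay format: 96-well plates, 48-hour exposure. GI50 marks 50% less growth. TGI marks complete inhibition of growth.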

Key:
Assay in all cases: NCI tumour cell line growth inhibition, 48 h
[1] = test system: HOP-92 NSCLC
[2] = test system: SNB-19 CNS
[3] = test system: A498 renal
[4] = test system: SK-OV-3 ovarian
[5] = test system: RXF 393 renal
[6] = test system: K-562 leukemia
[7] = test system: CAKI-1 renal
[8] = test system: SW-620 colon
[9] = test system: MCF7 breast
[10] = test system: BT-549 breast

Structure (SMILES) | TGI [1] | TGI [2] | TGI [3] | TGI [4] | TGI [5] | TGI [6] | TGI [7] | TGI [8] | GI50 [1] | GI50 [9] | TGI [9] | GI50 [2] | GI50 [4] | GI50 [10] | TGI [10] | GI50 [5] | GI50 [6] | GI50 [7] | GI50 [8] | GI50 [3]
COC(=O)C1C(OCc2ccccc2)C2CCC1(OC)C=C2C (centres undefined) | > 100 µM | > 100 µM | > 100 µM | > 100 µM | > 100 µM | > 100 µM | > 100 µM | > 100 µM |  |  |  |  |  |  |  |  |  |  |  | 
Cc1ccc(Oc2ccc([N+](=O)[O-])cc2[N+](=O)[O-])c(C)c1 |  |  | > 100 µM | > 100 µM | 89.7 µM | > 100 µM | > 100 µM | > 100 µM |  |  |  |  |  |  |  |  |  |  |  | 
O=c1c2cccnc2ncn1CCN1CCCC1 | > 100 µM | > 100 µM |  | > 100 µM | > 100 µM | > 100 µM | > 100 µM | > 100 µM |  |  |  |  |  |  |  |  |  |  |  | 
O=c1c2ccccc2nc(-c2cccc(Cl)c2)n1NCC1(O)OCC(O)C(O)C1O (centres undefined) |  | > 100 µM | > 100 µM | > 100 µM | > 100 µM | > 100 µM | > 100 µM | > 100 µM |  |  |  |  |  |  |  |  |  |  |  | 
O=C1CCS/C(=N\S(=O)(=O)c2ccc(N3N=C4c5ccccc5CC4C3c3cccs3)cc2)N1C(=O)c1ccccc1 (centres undefined) | > 100 µM | > 100 µM |  | > 100 µM | 33 µM | > 100 µM | 86.6 µM | > 100 µM | 25.4 µM | 9.1 µM | > 100 µM | 45.7 µM | 52.8 µM | 4.77 µM | > 100 µM | 6.31 µM | 26.4 µM | 26.8 µM | 13.1 µM | 
C=C1C(=O)OC2CC(C)C3C=CC(=O)C3CC12 (centres undefined) | 4.04 µM | 37.7 µM | 24.3 µM | 33.3 µM | 3.03 µM | 12.9 µM | 5.47 µM | 3.69 µM |  |  |  |  |  |  | 9.94 µM |  |  |  |  | 
COc1ccc(-c2c(N)[n+]([O-])c3ccccc3[n+]2[O-])cc1OC | > 100 µM | > 100 µM | > 100 µM | > 100 µM |  | > 100 µM | > 100 µM | > 100 µM |  |  |  |  |  |  |  |  |  |  |  | 
CCC(C(=O)c1ccccc1)C(CCCC(=O)Nc1c(C)cccc1C)N=O (centres undefined) | > 100 µM | > 100 µM | > 100 µM | > 100 µM |  | > 100 µM | > 100 µM | > 100 µM |  |  |  |  |  |  |  |  |  |  |  | 
C=C1C(=O)O[C@H]2[C@H]1CC/C(Cn1cc(-c3cc(C)c(C)cc3C)nn1)=C\CC[C@@]1(C)O[C@@H]21 | 1.68 µM | 15.9 µM | 4 µM | 23.9 µM | 2.21 µM | 6.24 µM | 2.39 µM | 1.54 µM | 0.436 µM |  |  | 3.9 µM | 11.7 µM | 0.753 µM | 2.66 µM | 0.962 µM | 1.39 µM | 1.08 µM | 0.424 µM | 1.04 µM
Cc1c2c(cc3c(=O)ccn(CCN(C)C)c13)c(=O)ccn2CCN(C)C | 31.3 µM | 35.7 µM | 38 µM | 37.5 µM | 28.9 µM | 44.9 µM | 67.8 µM | 20.5 µM |  |  |  |  |  |  |  |  |  |  |  | 
Cn1cnc([N+](=O)[O-])c1Sc1nnnn1-c1ccccc1 | 13 µM | > 100 µM | 38.9 µM | > 100 µM |  | 19.9 µM | 30.1 µM | 20.2 µM |  |  |  |  |  |  |  |  |  |  |  | 
S=c1nc(N2CCCCC2)ss1 | 36.7 µM | 84.9 µM | 43.3 µM | > 100 µM | 33.4 µM | 52.1 µM | > 100 µM | 72.4 µM |  |  |  |  |  |  |  |  |  |  |  | 
Cc1cccc(C)c1NC(=O)CCc1n[nH]c(=S)o1 | > 100 µM | > 100 µM | > 100 µM | > 100 µM |  | > 100 µM | > 100 µM | 36.2 µM |  |  |  |  |  |  |  |  |  |  |  | 
CCNCCCn1c2c(c3ccc([N+](=O)[O-])cc3c1=O)C(=O)c1cc(OC)cnc1-2 | 17.4 µM | 2.53 µM |  | 1.62 µM | 0.464 µM | 1.65 µM | 2.3 µM | 3.57 µM | 0.471 µM | 0.0186 µM | 1.37 µM | 0.0576 µM | 0.0589 µM | 0.172 µM | 1.2 µM | 0.136 µM | 0.0522 µM | 0.0406 µM | 0.0653 µM | 
O=C(NCc1ccncc1)C1COc2cc(-c3cc(=O)c4ccccc4o3)ccc2O1 (centres undefined) | > 100 µM |  |  | > 100 µM | > 100 µM | > 100 µM |  | > 100 µM |  |  |  |  |  |  |  |  |  |  |  | 
NNC(=O)/C(NC(=O)c1ccccc1)=C(\N)c1ccc(Cl)cc1 | > 100 µM | > 100 µM | > 100 µM | > 100 µM | > 100 µM | > 100 µM | > 100 µM | > 100 µM |  |  |  |  |  |  |  |  |  |  |  | 
COc1cc2c(cn1)[nH]c1ccccc12 | > 100 µM | > 100 µM |  | > 100 µM |  | > 100 µM | > 100 µM | > 100 µM |  |  |  |  |  |  |  |  |  |  |  | 
Clc1ccc(Nc2ccnc(NCCCNc3ccnc4cc(Cl)ccc34)n2)cc1 | 2.85 µM |  | 2.66 µM | 2.94 µM |  |  | 2.83 µM | 3.11 µM | 1.16 µM |  |  |  | 1.57 µM | 1.74 µM | 3.67 µM |  |  | 1.43 µM | 1.49 µM | 1.29 µM
C=CCn1cc(C(=O)NC(=O)NCCCCCOC(=O)CCCCCCCCCCC(=O)OCCCCCNC(=O)NC(=O)c2cn(CC=C)c(=O)n(C)c2=O)c(=O)n(C)c1=O | > 100 µM | > 100 µM | > 100 µM | > 100 µM | > 100 µM | > 100 µM | > 100 µM | > 100 µM |  |  |  |  |  |  |  |  |  |  |  | 
COc1cc(Nc2nc3ccc(C(F)(F)F)cc3nc2-c2ccccc2)cc(OC)c1OC | 6.17 µM |  | 78 µM | > 100 µM | > 100 µM | > 100 µM | 79.4 µM | > 100 µM |  |  |  |  |  |  |  |  |  |  |  | 
N#C/C(=C\c1ccc(C(O)P(=O)(O)O)cc1)C(N)=O (centres undefined) | > 100 µM | > 100 µM | > 100 µM | > 100 µM |  | > 100 µM |  | > 100 µM |  |  |  |  |  |  |  |  |  |  |  | 
C1COCCOCCOCCOCCO1.CC(=O)[CH-]C(C)=O.CC(=O)[CH-]C(C)=O.CC(=O)[CH-]C(C)=O.[V] | 44.7 µM | 32.6 µM | 66.3 µM | 33 µM | 3.26 µM | 71.4 µM | 33.2 µM | > 100 µM | 11.2 µM |  |  | 15.3 µM | 17.6 µM |  |  | 1.63 µM | 29.1 µM | 15 µM | 22.9 µM | 25 µM
CC1(O)CCC2(C#N)CCC1C2O (centres undefined) |  | > 100 µM | > 100 µM | > 100 µM | > 100 µM | > 100 µM | > 100 µM |  |  |  |  |  |  |  |  |  |  |  |  | 
